In patent US20230391826A1, “COMPOSITIONS AND METHODS FOR TREATING DISEASES” (Sanford Burnham Prebys Medical Discovery Institute, priority 2020, published 2023):
Several values for one entry are separate records, joined by “and”; a condition that tells them apart may be missing. Equal values may be shown once. Read-outs that look alike come from different tables or passages of the source.

What was measured:
AKT = experiment: Inhibition of AKT phosphorylation on S473 in PC3 cells; type: cell-based
Method: (FIG. 2A) Dose-response curves for EphA2 autophosphorylation on tyrosine 588 (pY588; purple) and for downstream inhibition of AKT phosphorylation (magenta). PC3 cells were treated for 15 min with different concentrations of the indicated peptides. […] The graphs show quantifications from multiple blots (averages ±SE; the number of experiments used to generate each curve is shown in Table 3). […] (FIG. 2B) Examples of immunoblots of lysates from PC3 cells treated with the indicated concentrations of representative ligands. […] A white vertical line indicates removal of irrelevant lanes. […] The bars show averages ±SE, and the individual measurements are shown as black dots. […] Plots of Etop versus EC50 for pY588 in FIG. 2D and for pAKT inh in FIG. 2E. Averages ±SE are shown for the peptides and ephrinA1.

EphA2 LBD = biological target: T1, EphA2 LBD (Homo sapiens, UniProt P29317); experiment: Isothermal titration calorimetry (ITC) with soluble EphA2 LBD; type: binding
T1 construct: made in house; host or cells: E. coli Origami 2(DE3)
Method: (FIG. 10A-10E) The EphA2 LBD was titrated at 200-250 μM into 10-12.5 μM of the indicated peptide.
For ITC, all peptides are dissolved in DMSO and both the EphA2 LBD and the peptides are diluted to obtain a final buffer containing 9.5 mM HEPES, pH 7.9, 95 mM NaCl, and 5% DMSO. The experiments are carried out at 296 K (23° C.) using an ITC200 calorimeter (Microcal). Two-microliter aliquots of a peptide solution are injected into the cell containing 205 μL EphA2 LBD. 200-400 μM peptides are titrated into 20-40 μM EphA2 LBD. Experimental data are analyzed using the Origin software package (Microcal). The integrated values for the reaction heats are normalized to the amount of injected peptide after blank subtraction.

[1] = biological target: T2, EphA2 extracellular domain fused to Fc (EphA2-Fc) (Homo sapiens, UniProt P29317); experiment: ELISA: inhibition of ephrinA5-AP binding to immobilized EphA2-Fc; conditions: Table 3; inhibition of EphA2-ephrinA5 interaction; averages ± SD; read-out: ICsa (nM) by ELISA
T2 construct: immobilized EphA2 extracellular domain fused to the Fc portion of an antibody (EphA2-Fc)
From the text: FIG. 1A-1C illustrates an example of Potency and selectivity of EphA2-targeting dimeric peptides. (FIG. 1A) ELISAs comparing the ability of the peptides to inhibit binding of ephrin-A5 fused to alkaline phosphatase (ephrinA5-AP) to the immobilized EphA2 extracellular domain fused to the Fc portion of an antibody (EphA2-Fc). The graphs show averages ±SD from triplicate measurements from a representative experiment. IC50 values calculated from the fitted curves in each experiment are shown. Averages of IC50 values obtained from multiple experiments are shown in panel FIG. 1B and Table 3. The 10 nM peptide concentration is outlined in red. (FIG. 1B) Plot of the average IC50 values (listed in Table 3) for different ligands. […] (FIG. 1C) EphrinA5-AP binding to EphA receptors and ephrinB2-AP binding to EphB receptors in the presence of dimeric peptides representing each of the three configurations. Values are normalized to ephrin binding without peptide. The graphs show averages and SDs from triplicate measurements (with each measurement shown as a dot).

EphA2 = EphA2 (Homo sapiens, UniProt P29317); experiment: Quantitative FRET of EphA2 oligomerization in transiently transfected HEK293 cells; type: cell-based; design: expressed in transfected cells; host or cells: HEK293 (HEK293T), transient transfection
From the text: FIG. 4A-4E illustrates an example where dimers with different configurations induce EphA2 oligomerization and patching on the cell surface. (FIG. 4A-4D) Oligomerization curves comparing EphA2 WT and the G131Y and L223R/L254R/[…] interface mutants transiently expressed in HEK293 cells and treated with saturating concentrations of C-terminally linked dimer (2) or N-terminally linked dimer (5). The curves were obtained by fitting quantitative FRET data to monomer-oligomer models. […] Curves for higher order oligomerization are steeper than dimerization curves. (FIG. 4E) Two-photon integrated fluorescence images of HEK293 cells expressing EphA2-EYFP and EphA2-mTURQ and under hypo-osmotic conditions. The plasma membrane regions in the rectangular yellow outlines are enlarged in the insets at the bottom of each panel. […]
To examine the effects of dimeric peptide ligands on EphA2 oligomerization (including dimerization and higher order clustering), quantitative FRET experiments were performed in live cells. […] FRET is then measured in hundreds of individual cells with different EphA2 expression levels (FIG. 12), and the data are combined to yield average oligomeric fractions at different EphA2 concentrations (FIG. 4A-4D). […]
To obtain the data points for oligomerization curves (FIG. 12), the concentration of EphA2 in each small region of plasma membrane in which FRET efficiency was measured. […]

T1 sequence (P29317 28-200): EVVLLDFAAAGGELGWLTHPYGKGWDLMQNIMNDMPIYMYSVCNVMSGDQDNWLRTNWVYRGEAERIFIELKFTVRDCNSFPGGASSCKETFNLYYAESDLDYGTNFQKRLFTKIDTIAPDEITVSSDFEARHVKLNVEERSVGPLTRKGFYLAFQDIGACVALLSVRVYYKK
T2 sequence (P29317 24-537 limits assumed): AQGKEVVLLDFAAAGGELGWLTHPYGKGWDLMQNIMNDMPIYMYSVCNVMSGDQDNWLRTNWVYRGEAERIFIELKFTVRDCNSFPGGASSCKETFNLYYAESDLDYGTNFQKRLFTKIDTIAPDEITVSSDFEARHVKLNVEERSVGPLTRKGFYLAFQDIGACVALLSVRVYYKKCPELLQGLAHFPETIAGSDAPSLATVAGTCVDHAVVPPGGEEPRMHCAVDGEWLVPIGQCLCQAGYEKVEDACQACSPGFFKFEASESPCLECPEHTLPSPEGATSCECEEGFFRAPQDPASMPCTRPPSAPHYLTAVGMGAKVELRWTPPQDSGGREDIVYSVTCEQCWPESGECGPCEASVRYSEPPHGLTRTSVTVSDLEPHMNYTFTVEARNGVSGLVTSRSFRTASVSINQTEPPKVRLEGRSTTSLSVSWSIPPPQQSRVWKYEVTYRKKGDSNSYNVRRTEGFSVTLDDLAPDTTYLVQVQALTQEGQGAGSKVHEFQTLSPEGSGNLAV
Chain of EphA2 (P29317 24-976): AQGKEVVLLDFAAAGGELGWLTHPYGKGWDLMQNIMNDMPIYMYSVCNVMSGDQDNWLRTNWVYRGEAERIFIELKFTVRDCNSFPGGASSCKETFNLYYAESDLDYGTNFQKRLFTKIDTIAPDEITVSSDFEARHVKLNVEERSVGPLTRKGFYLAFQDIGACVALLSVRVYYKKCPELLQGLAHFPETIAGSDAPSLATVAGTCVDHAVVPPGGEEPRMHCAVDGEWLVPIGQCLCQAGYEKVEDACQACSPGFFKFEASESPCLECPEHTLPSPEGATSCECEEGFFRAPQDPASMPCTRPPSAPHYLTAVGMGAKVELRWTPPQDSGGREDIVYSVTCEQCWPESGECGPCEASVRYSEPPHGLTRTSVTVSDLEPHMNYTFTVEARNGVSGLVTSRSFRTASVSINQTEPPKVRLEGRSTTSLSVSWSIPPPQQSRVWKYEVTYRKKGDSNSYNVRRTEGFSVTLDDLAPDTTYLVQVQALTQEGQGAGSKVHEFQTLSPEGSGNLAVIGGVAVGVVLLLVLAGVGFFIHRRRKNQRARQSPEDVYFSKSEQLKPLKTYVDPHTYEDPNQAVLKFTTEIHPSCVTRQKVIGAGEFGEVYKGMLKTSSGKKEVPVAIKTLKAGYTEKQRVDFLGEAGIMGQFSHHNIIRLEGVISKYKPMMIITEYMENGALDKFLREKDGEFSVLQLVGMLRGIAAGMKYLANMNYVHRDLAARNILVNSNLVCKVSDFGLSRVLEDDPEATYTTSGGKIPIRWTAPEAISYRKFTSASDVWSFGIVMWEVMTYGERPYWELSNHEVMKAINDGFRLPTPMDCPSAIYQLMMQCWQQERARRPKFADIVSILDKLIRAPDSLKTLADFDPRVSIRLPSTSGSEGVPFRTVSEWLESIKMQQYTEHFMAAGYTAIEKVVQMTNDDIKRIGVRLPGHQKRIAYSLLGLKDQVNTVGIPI

## CC(C)C[C@H](NC(=O)[C@H](Cc1c[nH]c2ccccc12)NC(=O)[C@H](C)NC(=O)CNC(=O)[C@@H](N)CSSC[C@H](N)C(=O)NCC(=O)N[C@@H](C)C(=O)N[C@@H](Cc1c[nH]c2ccccc12)C(=O)N[C@@H](CC(C)C)C(=O)N[C@@H](C)C(=O)N[C@@H](Cc1ccc(O)cc1)C(=O)N1CCC[C@H]1C(=O)N[C@@H](CC(=O)O)C(=O)N[C@@H](CO)C(=O)N[C@H](C(=O)N1CCC[C@H]1C(=O)N[C@@H](Cc1ccc(O)cc1)C(=O)N[C@@H](CCCNC(=N)N)C(=O)N1CCC[C@H]1C(=O)N[C@@H](CCCCN)C(=O)O)C(C)C)C(=O)N[C@@H](C)C(=O)N[C@@H](Cc1ccc(O)cc1)C(=O)N1CCC[C@H]1C(=O)N[C@@H](CC(=O)O)C(=O)N[C@@H](CO)C(=O)N[C@H](C(=O)N1CCC[C@H]1C(=O)N[C@@H](Cc1ccc(O)cc1)C(=O)N[C@@H](CCCNC(=N)N)C(=O)N1CCC[C@H]1C(=O)N[C@@H](CCCCN)C(=O)O)C(C)C [compound 5, CGA-WLA-YRPK dimer (N-ter)]
AKT; PC3 cells
  IC50: 0.068 ± 0.011 nM
AKT; Table 3, PC3 cells treated for 15 min, read-out: ECsa pAKT inhlb.
  EC50: 0.09 ± 0.02 nM
AKT; Table 3, PC3 cells, 15 min, 1-pAKT/AKT normalized to cells not treated with ligand
  Etop pAKT inhlb: 1.0 ± 0.04
EphA2 LBD
  Kd: 380 ± 80 nM
EphA2 LBD; Table 3
  N (binding stoichiometry by ITC): N = 2.2 ± 0.2
EphA2 LBD; Table 3, soluble EphA2 LBD
  Kd: 21 ± 3 nM
EphA2 LBD; Table 6
  -TΔS: 21.93 ± 0.31 kcal/mol
EphA2 LBD; Table 6, binding stoichiometry
  N: 2.2 ± 0.2
EphA2 LBD; Table 6, change in Gibbs energy
  ΔG: -10.41 ± 0.10 kcal/mol
EphA2 LBD; Table 6, change in enthalpy
  ΔH: -32.34 ± 0.21 kcal/mol
[1]
  IC50: 0.65 nM and 0.66 nM
EphA2; saturating peptide, HEK293 cells
  best-fit FRET oligomerization model, EphA2 WT: higher order oligomer model
EphA2; swollen HEK293 cells
  EphA2 patches on the plasma membrane, EphA2 WT: formation of fluorescent patches
